From paper PMC9391200, “Charge-based interactions through peptide position 4 drive diversity of antigen presentation by human leukocyte antigen class I molecules” (PNAS Nexus, 2022)

How the values were obtained:
HLA-A*24:02 [1] = target: T1, HLA-A*24:02 (Homo sapiens, UniProt P04439, D101N/D140Y/D185E/E176V/E190D/F33S/G103R/G107R/I119L/I121M/I306V/K335N/L105A/L180Q/L300P/N151K/N90K/Q86E/Q94H/R106L/R138H/R89G/T104I/T345S/V100E/W191G/Y123F); test: Peptide stability assay on WT HLA-A*24:02 (urea denaturation, W6/32 ELISA); assay type: binding; conditions: biotinylated A*24:02 refolded with excess peptide, incubated with 0, 2, 4 or 6 M urea, relative to reference peptide TYTQDFNKF (stability index 100%), result in words
Excerpt: (§1) All HLA-A*02:01- and A*24:02-restricted peptides used in the study were purchased from Genscript at purity of > 80% with quality control by reverse-phase HPLC and mass spectrometry (SC1208). Recombinant HLA-A*02:01 and HLA-A*24:02 molecules were made and re-folded as described elsewhere ([83]). Conformation-dependent W6/32 antibodies used in these assays were produced in vitro from hybridoma cell lines (Integra, Chur, Switzerland). All A*02:01 and A*24:02 binding assays were done as described previously ([83]). In brief, streptavidin donor beads (PerkinElmer, 6760002) and acceptor beads (PerkinElmer, 6762001) conjugated to W6/32 were incubated with A*02:01 or A*24:02 that had been preincubated with varying peptide concentrations. Plates were read by PerkinElmer EnVision and data was analyzed using GraphPad Prism. Peptide stability assays were performed as described previously ([84]). In brief, biotinylated A*02:01 and A*24:02 molecules were refolded with excess peptide then incubated with 0, 2, 4, or 6 M urea. Nondenatured peptides were detected by W6/32 staining using ELISA as described previously ([85]). Stability was calculated as a percentage relative to a reference known binder peptide with an assigned stability index of 100%. […] was used as the reference peptide for A*02:01 and TYTQDFNKF was used as the reference peptide for A*24:02 in both the binding and stability assays.

HLA-A*24:02 [2] = target: T1, HLA-A*24:02; test: Peptide binding assay on WT HLA-A*24:02 (W6/32 donor/acceptor bead assay); conditions: recombinant HLA-A*24:02 preincubated with varying peptide concentrations; streptavidin donor beads and W6/32-conjugated acceptor beads; EnVision read-out; reference peptide TYTQDFNKF; result in words
Excerpt: as §1

Sequence | HLA-A*24:02/peptide complex stability (HLA-A*24:02 [1]) | peptide binding to WT A*24:02 (HLA-A*24:02 [2])
KFKDNVILL [p1 lysine-substituted …] | increased | 
QFKDNVILL [native A*24:02-restricted peptide with subdominant anchors F2 and LΩ] |  | relatively poor binding
TFSDEAVHF |  | weak-binding
VYGFVRACL |  | strong-binding
